Laboratory results from patent publication US11066365B2, “1-cyano-pyrrolidine compounds as USP30 inhibitors” (Mission Therapeutics Limited, priority 2015, dated 2021).

Target: USP30 (Homo sapiens (Human), UniProt Q70CQ3)
Assay: USP30 biochemical IC50 assay (fluorescence polarisation, FP)
Conditions: USP30 biochemical FP or FI IC50 assay (table does not say which format per compound); read-out: IC50 range
Protocol: In Vitro USP30 FP Inhibition Assay
USP30 Biochemical IC50 Assay
Dilution plates were prepared at 21 times the final concentration (2100 μM for a final concentration of 100 μM) in 50% DMSO in a 96-well polypropylene V-bottom plate (Greiner #651201). A typical 8-point dilution series would be 100, 30, 10, 3, 1, 0.3, 0.1, 0.03 μM final. Reactions were performed in duplicate in black 384 well plates (small volume, Greiner 784076) in a final reaction volume of 21 μl. Either 1 μl of 50% DMSO or diluted compound was added to the plate. USP30 was diluted in reaction buffer (40 mM Tris, pH 7.5, 0.005% Tween 20, 0.5 mg/ml BSA, 5 mM beta-mercaptoethanol) to the equivalent of 0.05 μl/well and 10 μl of diluted USP30 was added to the compound. Enzyme and compound were incubated for 30 min at room temp. Reactions were initiated by the addition of 50 nM of TAMRA labelled peptide linked to ubiquitin via an iso-peptide bond as fluorescence polarisation substrate. Reactions were read immediately after addition of substrate and following a 2 hr incubation at room temperature. Readings were performed on a Pherastar Plus (BMG Labtech).

Chain of USP30 (Q70CQ3 57-517): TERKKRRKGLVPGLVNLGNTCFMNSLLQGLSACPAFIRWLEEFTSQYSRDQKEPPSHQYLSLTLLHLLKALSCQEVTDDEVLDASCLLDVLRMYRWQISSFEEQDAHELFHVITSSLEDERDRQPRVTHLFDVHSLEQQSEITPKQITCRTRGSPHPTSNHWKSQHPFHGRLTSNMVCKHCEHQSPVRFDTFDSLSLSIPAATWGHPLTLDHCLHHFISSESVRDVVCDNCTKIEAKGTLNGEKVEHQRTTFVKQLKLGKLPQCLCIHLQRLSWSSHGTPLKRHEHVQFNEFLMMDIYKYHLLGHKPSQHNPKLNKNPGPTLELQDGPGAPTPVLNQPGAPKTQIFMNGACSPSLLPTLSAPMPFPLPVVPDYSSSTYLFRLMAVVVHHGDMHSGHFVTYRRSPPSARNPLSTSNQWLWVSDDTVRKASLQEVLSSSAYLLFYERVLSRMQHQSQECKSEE

rac-(3aR,6aR)-1-(3-phenyl-1H- pyrazole-5- carbonyl)hexahydropyrrolo[3,4- bipyrrole-5(1H)-carbonitrile [Example 52]
IC50: 100 to 1000 nM
